SMILES strings stand for the structures.

This test can be described thus: Rancimate assay, antioxidative capacity (Example 1). To be noted: 0.1% w/w in soya oil; 120° C.; input of air 201/h. How it is done:
The antioxidative capacity of substances I-9, I-10 and I-2 is determined in the so-called Rancimate assay. The comparative substances used are 4-t-butyl-1-cyclohexanol and tocopherol. The positive standard employed is BHT. The measurement parameter is the time duration (induction time) of the increase in the conductivity of unstabilised soya oil on exposure to air at elevated temperature. The longer the induction time, the greater the stabilising or antioxidant action. The following boundary conditions were maintained: input of air 201/h; temperature 120° C. and sample concentrations of 0.1% w/w each in soya oil. For each test substance, a relative antioxidation-protection factor is determined, which corresponds to the ratio of the induction times with and without test substance: […]

In the case of `CCOC(=O)C1CCCCC1O` (stereo not shown) [Substance I-2], the “Antioxidation-protection factor (ratio of the induction times with and without test substance)” value was determined as 1.15.

The values are drawn from patent USRE46698E1, “Use of cyclohexanol derivatives as antimicrobial active compounds” (MERCK PATENT GMBH, priority 2011, dated 2018).
